From PubChem BioAssay AID256 (DTP/NCI, 2004) come the findings set out here.

Several values for one entry are separate records, joined by “and”; a condition that tells them apart may be missing. Equal entries are not always repeated. Inconclusive results and toxic doses are left out.

The subject of this assay is CD2F1 mice, L1210 leukemia ip, survival T/C. The assay is described as follows: NCI In Vivo Anticancer Drug Screen. Data for tumor model L1210 Leukemia (intraperitoneal) in CD2F1 (CDF1) mice. As to conditions: higher = longer survival. The gist of the method:
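In this screen, transplantable tumors were grown in mice given either the compound or its vehicle. Results were expressed as the treated measurement relative to the control measurement.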

Where [1] appears, read: endpoint: mean survival time, dose: 100.0 mg/kg/injection, schedule: Q04DX003 (ip), vehicle: saline with Tween-80.
[2] abbreviates: endpoint: mean survival time, dose: 200.0 mg/kg/injection, schedule: Q04DX003 (ip), vehicle: saline with Tween-80.
Setting [3] is: endpoint: mean survival time, dose: 400.0 mg/kg/injection, schedule: Q04DX003 (ip), vehicle: saline with Tween-80.
Setting [4] is: endpoint: mean survival time, dose: 100.0 mg/kg/injection, schedule: Q01DX009 (ip), vehicle: saline with Tween-80.
[5] abbreviates: endpoint: mean survival time, dose: 200.0 mg/kg/injection, schedule: Q01DX009 (ip), vehicle: saline with Tween-80.
[6] abbreviates: endpoint: mean survival time, dose: 400.0 mg/kg/injection, schedule: Q01DX009 (ip), vehicle: saline with Tween-80.
[7] abbreviates: endpoint: mean survival time, dose: 50.0 mg/kg/injection, schedule: Q01DX009 (ip), vehicle: saline with Tween-80.
The mark [8] stands for this setting: endpoint: mean survival time, dose: 100.0 mg/kg/injection, schedule: Q01DX001 (ip), vehicle: saline with Tween-80.
Where [9] appears, read: endpoint: mean survival time, dose: 200.0 mg/kg/injection, schedule: Q01DX001 (ip), vehicle: saline with Tween-80.
Setting [10] is: endpoint: mean survival time, dose: 400.0 mg/kg/injection, schedule: Q01DX001 (ip), vehicle: saline with Tween-80.
[11] abbreviates: endpoint: mean survival time, dose: 100.0 mg/kg/injection, schedule: Q04DX002 (ip), vehicle: saline with Tween-80.
The mark [12] stands for this setting: endpoint: mean survival time, dose: 200.0 mg/kg/injection, schedule: Q04DX002 (ip), vehicle: saline with Tween-80.
The mark [13] stands for this setting: endpoint: mean survival time, dose: 400.0 mg/kg/injection, schedule: Q04DX002 (ip), vehicle: saline with Tween-80.

On to `CCOC(=O)Nc1cc2c(c(N)n1)N=C(c1ccc(Cl)cc1)CN2`, for which the T/C reads like this: (endpoint: mean survival time, dose: 3.0 mg/kg/injection, schedule: Q01DX009 (ip), vehicle: Klucel (hydroxypropylcellulose) (HPC)) 110 % of control; (endpoint: mean survival time, dose: 6.0 mg/kg/injection, schedule: Q01DX009 (ip), vehicle: Klucel (hydroxypropylcellulose) (HPC)) 110 % of control; (endpoint: mean survival time, dose: 12.0 mg/kg/injection, schedule: Q01DX009 (ip), vehicle: Klucel (hydroxypropylcellulose) (HPC)) 114 % of control; (endpoint: mean survival time, dose: 12.5 mg/kg/injection, schedule: Q01DX001 (ip), vehicle: Klucel (hydroxypropylcellulose) (HPC)) 102 % of control; (endpoint: mean survival time, dose: 25.0 mg/kg/injection, schedule: Q01DX001 (ip), vehicle: Klucel (hydroxypropylcellulose) (HPC)) 111 % of control; (endpoint: mean survival time, dose: 25.0 mg/kg/injection, schedule: Q01DX009 (ip), vehicle: Klucel (hydroxypropylcellulose) (HPC)) 110 % of control. Also, the T/C runs as follows: (endpoint: mean survival time, dose: 50.0 mg/kg/injection, schedule: Q01DX001 (ip), vehicle: Klucel (hydroxypropylcellulose) (HPC)) 114 % of control; (endpoint: mean survival time, dose: 100.0 mg/kg/injection, schedule: Q01DX001 (ip), vehicle: Klucel (hydroxypropylcellulose) (HPC)) 116 % of control.
Turning to `CSc1n[nH]c(N=[N+]=[N-])c1C(N)=O`, the T/C by setting is: under setting [1], 96 % of control; under setting [2], 93 % of control; under setting [3], 101 % of control.
Consider `N#CCS(=O)(=O)c1cccc[n+]1[O-]`, for which the T/C by setting is: (endpoint: median survival time, dose: 25.0 mg/kg/injection, schedule: Q01DX009 (ip), vehicle: saline with Tween-80) 97 % of control; (endpoint: median survival time, dose: 50.0 mg/kg/injection, schedule: Q01DX009 (ip), vehicle: saline with Tween-80) 98 % of control; (endpoint: median survival time, dose: 100.0 mg/kg/injection, schedule: Q01DX009 (ip), vehicle: saline with Tween-80) 98 % of control; (endpoint: median survival time, dose: 200.0 mg/kg/injection, schedule: Q01DX009 (ip), vehicle: saline with Tween-80) 107 % of control; (endpoint: median survival time, dose: 400.0 mg/kg/injection, schedule: Q01DX009 (ip), vehicle: saline with Tween-80) 116 % of control.
In the case of `CCC1(O)C(=O)OCc2c1cc1n(c2=O)Cc2cc3ccc(C#N)cc3nc2-1` (centres undefined), the T/C (endpoint: median survival time, dose: 2.5 mg/kg/injection, schedule: Q04DX002 (ip), vehicle: saline with Tween-80) was 152 % of control; the T/C (endpoint: median survival time, dose: 5.0 mg/kg/injection, schedule: Q04DX002 (ip), vehicle: saline with Tween-80) is 196 % of control; the T/C (endpoint: median survival time, dose: 10.0 mg/kg/injection, schedule: Q04DX002 (ip), vehicle: saline with Tween-80) was 250 % of control and 365 % of control; the T/C (endpoint: median survival time, dose: 20.0 mg/kg/injection, schedule: Q04DX002 (ip), vehicle: saline with Tween-80) was 101 % of control and 103 % of control.
As to `Nc1[nH]c(=S)[nH]c(=O)c1NC(=O)C1CC1`, the T/C was 98 % of control (endpoint: mean survival time, dose: 100.0 mg/kg/injection, schedule: Q01DX009 (ip), vehicle: saline sonified); 92 % of control (endpoint: mean survival time, dose: 200.0 mg/kg/injection, schedule: Q01DX009 (ip), vehicle: saline sonified); 98 % of control (endpoint: mean survival time, dose: 400.0 mg/kg/injection, schedule: Q01DX009 (ip), vehicle: saline sonified).
Turning to `CCN(C(=O)Nc1cc(OC)ccc1OC)c1ccc(Cl)cc1`, the T/C by setting is: under setting [4], 96 % of control; under setting [5], 96 % of control; under setting [6], 93 % of control.
For the compound `CCOC(=O)CC(=O)C(F)(F)F.[Cu+2]`, the T/C was 98 % of control (endpoint: mean survival time, dose: 2.5 mg/kg/injection, schedule: Q01DX009 (ip), vehicle: saline with Tween-80); 98 % of control (endpoint: mean survival time, dose: 5.0 mg/kg/injection, schedule: Q01DX009 (ip), vehicle: saline with Tween-80); 95 % of control (endpoint: mean survival time, dose: 10.0 mg/kg/injection, schedule: Q01DX009 (ip), vehicle: saline with Tween-80).
For the compound `CC(C)C(O)C(C)N` (centres undefined), the T/C runs as follows: (endpoint: mean survival time, dose: 25.0 mg/kg/injection, schedule: Q01DX009 (ip), vehicle: saline with Tween-80) 113 % of control; under setting [7], 95 % of control; under setting [4], 93 % of control.
Turning to `O=C(CNC(=O)Nc1ccc(F)cc1)N/N=C/c1cc(Br)ccc1O`, the T/C by setting is: under setting [7], 100 % of control; under setting [4], 96 % of control; under setting [5], 88 % of control.
Turning to `COc1cc2c(cc1OC)C1Cc3ccc4cc(OC)c(OC)cc4c3CN1CC2` (centres undefined), the T/C was 94 % of control (endpoint: mean survival time, dose: 100.0 mg/kg/injection, schedule: Q01DX009 (ip), vehicle: saline); 102 % of control under setting [1]; 93 % of control under setting [2]; 94 % of control under setting [3].
Turning to `CN1C(=O)C=C(C=Nc2ccc(-c3ccccc3)cc2)C2CCCCC21` (centres undefined), the T/C runs as follows: under setting [1], 106 % of control; under setting [2], 98 % of control; under setting [3], 97 % of control.
As to `O=c1[nH][nH]c(=O)c2c1ncn2C1OC(CO)C(O)C1O` (centres undefined), the T/C reads like this: (endpoint: mean survival time, dose: 12.5 mg/kg/injection, schedule: Q01DX005 (ip), vehicle: water) 101 % of control; (endpoint: mean survival time, dose: 25.0 mg/kg/injection, schedule: Q01DX005 (ip), vehicle: water) 100 % of control; (endpoint: mean survival time, dose: 50.0 mg/kg/injection, schedule: Q01DX005 (ip), vehicle: water) 101 % of control; (endpoint: mean survival time, dose: 100.0 mg/kg/injection, schedule: Q01DX005 (ip), vehicle: water) 101 % of control; (endpoint: mean survival time, dose: 200.0 mg/kg/injection, schedule: Q01DX005 (ip), vehicle: water) 100 % of control.
As to `C[N+](C)(C)Cc1c[nH]c2ccccc12`, the T/C under setting [8] was 94 % of control, the T/C under setting [9] is 91 % of control and the T/C under setting [10] was 96 % of control.
Consider `COc1cc([N+](=O)[O-])ccc1NC(=O)N(c1ccccc1)C(C)C`, for which the T/C under setting [8] was 101 % of control and 112 % of control; the T/C under setting [4] is 98 % of control and 105 % of control; the T/C under setting [11] is 96 % of control; the T/C under setting [1] is 101 % of control; the T/C under setting [9] was 101 % of control and 104 % of control; the T/C under setting [5] was 94 % of control and 95 % of control. The T/C is 98 % of control under setting [12]; 95 % of control under setting [2]; 95 % of control and 97 % of control under setting [10]; 94 % of control and 101 % of control under setting [6]; 98 % of control under setting [13]; 103 % of control under setting [3].
Regarding `S=C(Nc1ccccn1)c1ccccn1`, the T/C is 111 % of control under setting [11]; 100 % of control under setting [1]; 95 % of control under setting [12]; 94 % of control under setting [2]; 103 % of control under setting [13]; 103 % of control under setting [3].
For the compound `C1CCN(CN2CCCCC2)CC1`, the T/C by setting is: (endpoint: mean survival time, dose: 12.5 mg/kg/injection, schedule: Q01DX009 (ip), vehicle: saline) 103 % of control; (endpoint: mean survival time, dose: 25.0 mg/kg/injection, schedule: Q01DX009 (ip), vehicle: saline) 98 % of control; (endpoint: mean survival time, dose: 25.0 mg/kg/injection, schedule: Q04DX003 (ip), vehicle: saline) 90 % of control; (endpoint: mean survival time, dose: 50.0 mg/kg/injection, schedule: Q01DX009 (ip), vehicle: saline) 97 % of control; (endpoint: mean survival time, dose: 50.0 mg/kg/injection, schedule: Q04DX003 (ip), vehicle: saline) 92 % of control.
For the compound `CC(C)(C)NC(=S)Nc1ccccc1`, the T/C is 100 % of control (endpoint: mean survival time, dose: 50.0 mg/kg/injection, schedule: Q04DX003 (ip), vehicle: saline with Tween-80); 94 % of control under setting [1]; 91 % of control under setting [2].
Take `CC(=N\O)/C(C)=N/O.CC(=N\O)/C(C)=N/O.CCCC1CC[N-]CC1.CCCC1CC[N-]CC1.CCCC1CC[N-]CC1.CCCC1CC[N-]CC1.[Cl-].[Cl-].[Cl][Rh][Cl].[Rh+3]`: the T/C reads like this: (endpoint: mean survival time, dose: 6.25 mg/kg/injection, schedule: Q01DX009 (ip), vehicle: water) 97 % of control; (endpoint: mean survival time, dose: 6.25 mg/kg/injection, schedule: Q04DX003 (ip), vehicle: water) 86 % of control; (endpoint: mean survival time, dose: 12.5 mg/kg/injection, schedule: Q04DX003 (ip), vehicle: water) 94 % of control; (endpoint: mean survival time, dose: 25.0 mg/kg/injection, schedule: Q01DX009 (ip), vehicle: water) 88 % of control; (endpoint: mean survival time, dose: 25.0 mg/kg/injection, schedule: Q04DX003 (ip), vehicle: water) 86 % of control.
Take `CC(N)CCC(C)(C)O` (centres undefined): the T/C is 92 % of control (endpoint: mean survival time, dose: 100.0 mg/kg/injection, schedule: Q04DX003 (ip), vehicle: saline) and 100 % of control (endpoint: mean survival time, dose: 200.0 mg/kg/injection, schedule: Q04DX003 (ip), vehicle: saline).
Consider `CCCCNCCO`, for which the T/C (endpoint: mean survival time, dose: 100.0 mg/kg/injection, schedule: Q01DX001 (ip), vehicle: saline) was 104 % of control.
